# Measurements: US20230312587A1, “PTERIDINONE COMPOUNDS AND USES THEREOF” (Vertex Pharmaceutical Incorporated, priority 2018, published 2023)
# pIC50: −log10 of the molar value.
# System: β-catenin-TCF-mediated reporter transcription activity in Colo 205 cells
# Experiment: Colo 205 reporter assay (TCF/LEF luciferase)
# Format: cell-based
# Details: Colo 205 TCF/LEF luciferase reporter, five hours after addition of compound; read-out: TCF reporter Colo205 IC50
# Procedure, shortened: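 Luciferase signal from a TCF/LEF-driven reporter, stably integrated in Colo 205 colon cancer cells, was measured 5 h after compound addition.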
row,SMILES,pIC50
1,"Cc1nc(N[C@H]2CO[C@H](COc3cc(F)c(F)c(F)c3)C2)nc2c1NC(=O)[C@H](C)N2C [Compound 301, (7S)-4,7,8-trimethyl-2-(((3R,5S)-5-((3,4,5-trifluorophenoxy)methyl)tetrahydrofuran-3-yl)amino)-7,8-dihydropteridin-6(5H)-one]",> 6.52
2,"Cc1nc(N[C@H]2CO[C@H](COc3cc(F)c(F)c(F)c3)C2)nc2c1NC(=O)[C@H](C)N2C [Compound 302, (7S)-4,7,8-trimethyl-2-(((3R,5S)-5-((3,4,5-trifluorophenoxy)methyl)tetrahydrofuran-3-yl)amino)-7,8-dihydropteridin-6(5H)-one]",5.30 to 6.00

# Same assay, conditions: Homo sapiens, COLO 205, 5 h, Colo 205 TCF/LEF luciferase reporter, five hours after addition of compound; read-out: TCF reporter Colo205 IC50
row,SMILES,pIC50
1,"Cc1nc(N[C@H]2C[C@@H](COc3cc(F)c(F)cc3F)C2)nc2c1NC(=O)[C@H](C)N2C [Compound 285, (7S)-4,7,8-trimethyl-2-((cis-3-((2,4,5-trifluorophenoxy)methyl)cyclobutyl)-amino)-7,8-dihydropteridin-6(5H)-one]",> 6.52
2,"Cc1nc(N[C@H]2C[C@@H](COCc3ccc(F)cc3)C2)nc2c1NC(=O)[C@H](C)N2C [Compound 286, (7S)-2-((cis-3-(((4-fluorobenzyl)oxy)methyl)cyclobutyl)amino)-4,7,8-trimethyl-7,8-dihydropteridin-6(5H)-one]",> 6.52
3,"COc1c(F)cc(O[C@H]2C[C@H](Nc3nc(C)c4c(n3)N(C)[C@@H](C)C(=O)N4)C2)cc1F [Compound 287, (7S)-2-((trans-3-(3,5-difluoro-4-methoxyphenoxy)cyclobutyl)amino)-4,7,8-trimethyl-7,8-dihydropteridin-6(5H)-one]",> 6.52
4,"C[C@H]1C(=O)Nc2cnc(N[C@H]3C[C@@H](COCc4ccc(F)cc4)C3)nc2N1C [Compound 288, (7S)-2-((cis-3-(((4-fluorobenzyl)oxy)methyl)cyclobutyl)amino)-7,8-dimethyl-7,8-dihydropteridin-6(5H)-one]",6.00 to 6.52
5,"Cc1nc(N[C@H]2C[C@H](Oc3ccc(F)c(F)c3F)C2)nc2c1NC(=O)[C@H](C)N2C [Compound 291, (7S)-4,7,8-trimethyl-2-((trans 3-(2,3,4-trifluorophenoxy)cyclobutyl)amino)-7,8-dihydropteridin-6(5H)-one]",> 6.52
6,"Cc1nc(N[C@H]2C[C@H](Oc3ccc(F)c(F)c3F)C2)nc2c1N(C)C(=O)[C@H](C)N2C [Compound 293, (7S)-4,5,7,8-tetramethyl-2-((trans-3-(2,3,4-trifluorophenoxy)cyclobutyl)-amino)-7,8-dihydropteridin-6(5H)-one]",> 6.52
7,"Cc1nc(N[C@H]2C[C@H](Oc3cc(F)c(F)cc3F)C2)nc2c1N(C)C(=O)[C@H](C)N2C [Compound 294, (7S)-4,5,7,8-tetramethyl-2-((trans-3-(2,4,5-trifluorophenoxy)-cyclobutyl)amino)-7,8-dihydropteridin-6(5H)-one]",> 6.52
8,"Cc1nc(N[C@H]2C[C@H](Oc3ccc(F)cc3F)C2)nc2c1N(C)C(=O)[C@H](C)N2C [Compound 296, (7S)-2-((trans-3-(2,4-difluorophenoxy)cyclobutyl)amino)-4,5,7,8-tetramethyl-7,8-dihydropteridin-6(5H)-one]",> 6.52
9,"Cc1nc(N[C@H]2C[C@H](Sc3ccc(F)cc3)C2)nc2c1NC(=O)[C@H](C)N2C [Compound 303, (7S)-2-((trans-3-((4-fluorophenyl)thio)cyclobutyl)amino)-4,7,8-trimethyl-7,8-dihydropteridin-6(5H)-one]",6.00 to 6.52
10,"Cc1nc(N[C@H]2C[C@@H](Sc3ccc(F)cc3)C2)nc2c1NC(=O)[C@H](C)N2C [Compound 304, (7S)-2-((cis-3-((4-fluorophenyl)thio)cyclobutyl)amino)-4,7,8-trimethyl-7,8-dihydropteridin-6(5H)-one]",6.00 to 6.52
11,"Cc1nc(NC2COC(Cn3nccc3C(F)(F)F)C2)nc2c1NC(=O)[C@H](C)N2C (stereo partly drawn) [Compound 306, (7S)-4,7,8-trimethyl-2-((cis-5-((5-(trifluoromethyl)-1H-pyrazol-1-yl)methyl)-tetrahydrofuran-3-yl)amino)-7,8-dihydropteridin-6(5H)-one]",5.30 to 6.00
